These results are taken from US11584747B2, “Substituted pyridopyrimidinonyl compounds useful as T cell activators” (BRISTOL-MYERS SQUIBB COMPANY, priority 2019, dated 2023).

Like-named read-outs stand apart in the source and are kept apart here.

One assay deals with human DGKζ (Homo sapiens (Human), UniProt Q13574). Put plainly: DGKζ LIPGLO assay (extruded liposome substrate, ADP-Glo luminescence). It counts as biochemical. The conditions noted are these: liposome assay; read-out: DGK zeta LIPGLO IC50.
In assay [1] the target is T1, human DGKα (Homo sapiens (Human), UniProt P23743). Put plainly: DGKα ADPGLO assay (detergent/lipid micelle substrate). Type of assay: biochemical. The conditions noted are these: truncated DGK alpha; read-out: DGK alpha ADPGLO (Truncated) IC50. As to the method:
DGK Alpha ADPGLO (Truncated) IC50 (uM)
The detergent/lipid micelle was prepared by combining 15 g phosphatidylserine (Avanti 840035P) and 1 g diacylglycerol (8008110) and dissolving into 150 mL chloroform in a 2 L round bottom flask. Chloroform was removed under high vacuum by rotary evaporation. […] The lipid/detergent solution was split into 5 mL aliquots and stored at −80° C.

Assay [2] has as its system human venous whole blood (IFN-γ). Description: Human whole blood IFN-γ assay. Type of assay: cell-based. The conditions noted are these: whole blood, normalized to 3 μM reference compound as 100% activation, read-out: IFN-γ Whole Blood Normalized EC50. As to the method: Human venous whole blood (22.5 μL per well), obtained from healthy donors, was pre-treated with compounds for one hour at 37° C. in a humidified 95% air/5% CO2 incubator. The blood was stimulated with 2.5 μL anti-human CD3 and anti-CD28 mAb at a final concentration of 1 μg/mL each for 24 hours at 37° C. IFN-γ in the supernatants was measured using AlphLISA kit (Cat #AL217).

In a further assay the test system is whole blood (pERK). Put plainly: pERK Whole Blood assay (Table A; no whole-blood pERK method described). Type of assay: cell-based. To be noted: normalized.
Assay [3] has as its target T1, human DGKα. Put plainly: DGKα LIPGLO assay (extruded liposome substrate, ADP-Glo luminescence). It counts as biochemical. The conditions noted are these: liposome assay; read-out: DGK alpha LIPGLO IC50. Background: ADP-Glo turns the ADP formed in a reaction into a luminescent signal.

T1 sequence (P23743 whole entry, looked up, the tested form may be a part): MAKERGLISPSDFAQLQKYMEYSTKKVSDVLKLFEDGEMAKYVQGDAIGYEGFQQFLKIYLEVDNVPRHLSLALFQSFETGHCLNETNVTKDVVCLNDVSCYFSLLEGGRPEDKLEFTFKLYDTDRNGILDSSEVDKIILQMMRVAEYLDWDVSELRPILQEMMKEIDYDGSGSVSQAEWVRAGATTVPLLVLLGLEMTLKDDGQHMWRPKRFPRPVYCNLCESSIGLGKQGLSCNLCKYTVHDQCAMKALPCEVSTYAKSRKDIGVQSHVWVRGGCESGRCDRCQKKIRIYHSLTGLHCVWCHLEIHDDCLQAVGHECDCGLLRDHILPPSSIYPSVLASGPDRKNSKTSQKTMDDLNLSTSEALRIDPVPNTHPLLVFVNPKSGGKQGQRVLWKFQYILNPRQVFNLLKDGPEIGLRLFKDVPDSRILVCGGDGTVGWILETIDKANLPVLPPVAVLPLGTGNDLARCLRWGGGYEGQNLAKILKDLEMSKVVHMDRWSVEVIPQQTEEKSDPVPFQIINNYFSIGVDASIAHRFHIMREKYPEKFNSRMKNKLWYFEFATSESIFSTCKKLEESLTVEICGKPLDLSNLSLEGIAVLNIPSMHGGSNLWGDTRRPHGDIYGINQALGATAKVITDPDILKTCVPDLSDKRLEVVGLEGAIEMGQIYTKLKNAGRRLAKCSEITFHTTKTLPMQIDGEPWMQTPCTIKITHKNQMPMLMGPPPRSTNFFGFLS
Sequence of human DGKζ (Q13574 other isoform, or with tags, fused parts or gaps): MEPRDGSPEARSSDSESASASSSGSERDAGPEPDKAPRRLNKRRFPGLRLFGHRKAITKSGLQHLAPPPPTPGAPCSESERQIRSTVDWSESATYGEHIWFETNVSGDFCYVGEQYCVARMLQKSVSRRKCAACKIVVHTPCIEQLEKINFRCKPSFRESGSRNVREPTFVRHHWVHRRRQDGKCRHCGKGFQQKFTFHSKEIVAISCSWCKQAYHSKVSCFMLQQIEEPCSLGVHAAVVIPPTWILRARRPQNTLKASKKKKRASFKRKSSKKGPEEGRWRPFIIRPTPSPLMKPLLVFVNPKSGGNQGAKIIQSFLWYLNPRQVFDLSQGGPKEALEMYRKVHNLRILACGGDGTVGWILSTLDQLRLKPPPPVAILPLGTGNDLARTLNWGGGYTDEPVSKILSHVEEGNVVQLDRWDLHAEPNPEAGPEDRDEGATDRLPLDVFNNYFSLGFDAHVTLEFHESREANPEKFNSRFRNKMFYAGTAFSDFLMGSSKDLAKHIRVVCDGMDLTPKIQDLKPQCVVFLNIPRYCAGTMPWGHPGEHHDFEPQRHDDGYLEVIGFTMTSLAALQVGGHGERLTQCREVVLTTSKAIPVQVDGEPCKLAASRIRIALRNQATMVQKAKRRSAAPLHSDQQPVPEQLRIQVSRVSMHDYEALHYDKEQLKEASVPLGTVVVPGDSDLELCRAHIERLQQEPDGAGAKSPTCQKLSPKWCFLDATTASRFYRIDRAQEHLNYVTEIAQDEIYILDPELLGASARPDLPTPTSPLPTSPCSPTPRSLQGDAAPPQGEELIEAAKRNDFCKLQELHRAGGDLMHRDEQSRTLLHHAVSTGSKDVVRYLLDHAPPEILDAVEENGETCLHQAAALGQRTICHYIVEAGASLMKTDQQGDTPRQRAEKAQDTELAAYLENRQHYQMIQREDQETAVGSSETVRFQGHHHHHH

Broadly, the IC50 is the concentration at which inhibition is half-maximal. A word on the EC50: it is the concentration giving half of the maximal effect. In the case of `CC[C@@H]1CN(c2nc(=O)n(C)c3ccc(C#N)nc23)[C@@H](C)CN1C(c1ccc(OC(F)(F)F)cc1)c1ccccn1` (single isomer, unassigned) [Example 93], the IC50 was found to be 0.52 µM on human DGKζ, 0.018 µM at human DGKα [1] and 0.67 µM with whole blood (pERK). In assay [2], the EC50 came to 0.17 µM.
As to `CC[C@@H]1CN(c2nc(=O)n(C)c3ccc(C#N)nc23)[C@@H](C)CN1C(c1ccc(Cl)cc1)c1ccccn1` (single isomer, unassigned) [Example 96], the half-inhibitory concentration (IC50) on human DGKα [1] worked out at 0.096 µM; with whole blood (pERK), 0.2 µM. Moreover, the EC50 in assay [2] was 0.057 µM.
On to `CC(c1ccc(OC(F)(F)F)cc1F)N1C[C@H](C)N(c2nc(=O)n(C)c3ccc(C#N)nc23)C[C@H]1C` (single isomer, unassigned) [Example 143], for which the IC50 at human DGKα [3] amounted to 1.33 µM; on human DGKζ, 2.12 µM; with whole blood (pERK), 1.14 µM.
Regarding `CC(c1ccc(F)cc1F)N1C[C@H](C)N(c2nc(=O)n(C)c3ccc(C#N)nc23)C[C@H]1C` (single isomer, unassigned) [Example 144], the IC50 at human DGKα [3] is 0.028 µM; on human DGKζ, 0.046 µM; in the assay on whole blood (pERK), 0.065 µM.
The corresponding values for `CC(c1ccc(Cl)cc1F)N1C[C@H](C)N(c2nc(=O)n(C)c3ccc(C#N)nc23)C[C@H]1C` (single isomer, unassigned) [Example 147] are 1.46 µM, 1.13 µM and 1 µM.
The corresponding values for `CC(c1ccc(C(F)(F)F)cc1F)N1C[C@H](C)N(c2nc(=O)n(C)c3ccc(C#N)nc23)C[C@H]1C` (single isomer, unassigned) [Example 151] are 3.46 µM, 0.83 µM and 1.87 µM.
Regarding `CC[C@H]1CN(C(C)c2ccc(OC(C)(C)COC)cc2)[C@H](CC)CN1c1nc(=O)n(C)c2ccc(C#N)nc12` (some centres unmarked) [Example 188], the results for the 50% inhibitory concentration (IC50) at human DGKζ, at human DGKα [1] and in the assay with whole blood (pERK) were 0.31 µM, 0.014 µM and 0.27 µM, respectively. The half-maximal effective concentration (EC50) in assay [2] turned out to be 0.073 µM.
Take `CCC(c1ccc(OCC2CC2)cc1F)N1C[C@H](CC)N(c2nc(=O)n(C)c3ccc(C#N)nc23)C[C@H]1CC` (stereo partly drawn) [Example 199, 4-((2S,5R)-4-(1-(4-(cyclopropylmethoxy)-2-fluorophenyl)propyl)-2,5-diethylpiperazin-1-yl)-1-methyl-2-oxo-1,2-dihydropyrido[3,2-d]pyrimidine-6-carbonitrile]: the IC50 on human DGKζ was 0.92 µM; at human DGKα [1], 0.63 µM; with whole blood (pERK), 11.3 µM. Moreover, the 50% effective concentration (EC50) in assay [2] is 2.06 µM.
Take `CC[C@H]1CN(C(C)c2cnc(N3CCOCC3)nc2)[C@H](CC)CN1c1nc(=O)n(C)c2ccc(C#N)nc12` (stereo partly drawn) [Example 206, 4-((2S,5R)-2,5-diethyl-4-(1-(2-morpholinopyrimidin-5-yl)ethyl)piperazin-1-yl)-1-methyl-2-oxo-1,2-dihydropyrido[3,2-d] pyrimidine-6-carbonitrile]: the IC50 came to 51 µM on human DGKζ, 3.98 µM on human DGKα [1] and 0.08 µM in the assay with whole blood (pERK). In assay [2], the 50% effective concentration (EC50) was determined as 20 µM.
On to `CC[C@H]1CN(C(C)c2cccc(OC)n2)[C@H](CC)CN1c1nc(=O)n(C)c2ccc(C#N)nc12` (stereo partly drawn) [Example 214, 4-((2S,5R)-2,5-diethyl-4-(1-(6-methoxypyridin-2-yl)ethyl)piperazin-1-yl)-1-methyl-2-oxo-1,2-dihydropyrido[3,2-d]pyrimidine-6-carbonitrile], for which the results for the IC50 at human DGKζ, at human DGKα [1] and with whole blood (pERK) were 6.62 µM, 2.01 µM and 0.066 µM, respectively. The concentration giving a half-maximal response (EC50) in assay [2] is 20 µM.
The corresponding values for `CC[C@H]1CN(C(C)c2cccc(OC)n2)[C@H](CC)CN1c1nc(=O)n(C)c2ccc(C#N)nc12` (stereo partly drawn) [Example 215, 4-((2S,5R)-2,5-diethyl-4-(1-(6-methoxypyridin-2-yl)ethyl)piperazin-1-yl)-1-methyl-2-oxo-1,2-dihydropyrido[3,2-d]pyrimidine-6-carbonitrile] are 0.11 µM, 0.077 µM, 20 µM and 0.17 µM.
On to `CCC(c1ccc(OC(F)F)cc1F)N1C[C@H](CC)N(c2nc(=O)n(C)c3ccc(C#N)nc23)C[C@H]1CC` (stereo partly drawn) [Example 232, 4-((2S,5R)-4-(1-(4-(difluoromethoxy)-2-fluorophenyl)propyl)-2,5-diethylpiperazin-1-yl)-1-methyl-2-oxo-1,2-dihydropyrido[3,2-d]pyrimidine-6-carbonitrile], for which the values for the IC50 on human DGKζ, on human DGKα [1] and in the assay on whole blood (pERK) were 0.013 µM, 0.002 µM and 0.044 µM, respectively. Besides, in assay [2], the half-maximal effective concentration (EC50) was 0.044 µM.
In the case of `CCC(c1ccc(C)cc1)N1C[C@H](CC)N(c2nc(=O)n(C)c3ccc(C#N)nc23)C[C@H]1CC` (stereo partly drawn) [Example 236, 4-((2S,5R)-2,5-diethyl-4-(1-(p-tolyl)propyl)piperazin-1-yl)-1-methyl-2-oxo-1,2-dihydropyrido[3,2-d]pyrimidine-6-carbonitrile], the IC50 at human DGKζ amounted to 0.058 µM; at human DGKα [1], 0.009 µM; in the assay on whole blood (pERK), 0.044 µM. The half-maximal effective concentration (EC50) in assay [2] was 0.012 µM.
In the case of `CC[C@H]1CN(C(C)c2cccc(OC(F)F)n2)[C@H](CC)CN1c1nc(=O)n(C)c2ccc(C#N)nc12` (stereo partly drawn) [Example 240, 4-((2S,5R)-4-(1-(6-(difluoromethoxy)pyridin-2-yl)ethyl)-2,5-diethylpiperazin-1-yl)-1-methyl-2-oxo-1,2-dihydropyrido[3,2-d]pyrimidine-6-carbonitrile], the IC50 was determined as 0.11 µM at human DGKζ, 0.073 µM at human DGKα [1] and 0.29 µM in the assay on whole blood (pERK). Also, in assay [2], the concentration for a half-maximal effect (EC50) worked out at 0.27 µM.
The corresponding values for `CC[C@H]1CN(C(C)c2cccc(OC(F)F)n2)[C@H](CC)CN1c1nc(=O)n(C)c2ccc(C#N)nc12` (stereo partly drawn) [Example 241, 4-((2S,5R)-4-(1-(6-(difluoromethoxy)pyridin-2-yl)ethyl)-2,5-diethylpiperazin-1-yl)-1-methyl-2-oxo-1,2-dihydropyrido[3,2-d]pyrimidine-6-carbonitrile] are 0.92 µM, 0.46 µM, 0.19 µM and 2.42 µM.
Regarding `CC[C@H]1CN(C(C)c2cccc(OC(F)(F)F)n2)[C@H](CC)CN1c1nc(=O)n(C)c2ccc(C#N)nc12` (stereo partly drawn) [Example 245, 4-((2S,5R)-2,5-diethyl-4-(1-(6-(trifluoromethoxy)pyridin-2-yl)ethyl)piperazin-1-yl)-1-methyl-2-oxo-1,2-dihydropyrido[3,2-d]pyrimidine-6-carbonitrile], the concentration for half-maximal inhibition (IC50) came to 0.29 µM at human DGKζ, 0.018 µM on human DGKα [1] and 0.41 µM in the assay with whole blood (pERK). Moreover, the EC50 in assay [2] (Homo sapiens) was 0.22 µM.
For `CCC(c1ccc(CN2CCOCC2)cc1)N1C[C@H](CC)N(c2nc(=O)n(C)c3ccc(C#N)nc23)C[C@H]1CC` (stereo partly drawn) [Example 267, 4-((2S,5R)-2,5-diethyl-4-(1-(4-(morpholinomethyl)phenyl)propyl)piperazin-1-yl)-1-methyl-2-oxo-1,2-dihydropyrido[3,2-d]pyrimidine-6-carbonitrile], the values for the IC50 on human DGKζ, at human DGKα [1] and with whole blood (pERK) were 0.1 µM, 0.041 µM and 1.02 µM, respectively. Also, the half-maximal effective concentration (EC50) in assay [2] came out at 0.045 µM.
As to `CC[C@H]1CN(C(C)c2ccc(CN3CCN(C(C)=O)CC3)cc2)[C@H](CC)CN1c1nc(=O)n(C)c2ccc(C#N)nc12` (stereo partly drawn) [Example 283, 4-((2S,5R)-4-(1-(4-((4-acetylpiperazin-1-yl)methyl)phenyl)ethyl)-2,5-diethylpiperazin-1-yl)-1-methyl-2-oxo-1,2-dihydropyrido[3,2-d]pyrimidine-6-carbonitrile], the 50% inhibitory concentration (IC50) at human DGKζ came to 2.43 µM; at human DGKα [1], 0.2 µM; with whole blood (pERK), 6.26 µM. Besides, in assay [2], the EC50 was 1.25 µM.
On to `CC[C@H]1CN(C(C)c2ccc(CN3CCC[C@@H](O)C3)cc2)[C@H](CC)CN1c1nc(=O)n(C)c2ccc(C#N)nc12` (stereo partly drawn) [Example 289, 4-((2S,5R)-2,5-diethyl-4-(1-(4-(((R)-3-hydroxypiperidin-1-yl)methyl)phenyl)ethyl)piperazin-1-yl)-1-methyl-2-oxo-1,2-dihydropyrido[3,2-d]pyrimidine-6-carbonitrile], for which the IC50 at human DGKζ is 8.64 µM; at human DGKα [1], 2.7 µM; with whole blood (pERK), 0.35 µM. The EC50 in assay [2] (Homo sapiens) came to 5.72 µM.
As for `CC[C@H]1CN(C(C)c2ccc(CN3C[C@@H](C)O[C@@H](C)C3)cc2)[C@H](CC)CN1c1nc(=O)n(C)c2ccc(C#N)nc12` (stereo partly drawn) [Example 292, 4-((2S,5R)-4-(1-(4-(((2S,6R)-2,6-dimethylmorpholino)methyl)phenyl)ethyl)-2,5-diethylpiperazin-1-yl)-1-methyl-2-oxo-1,2-dihydropyrido[3,2-d]pyrimidine-6-carbonitrile], the concentration for half-maximal inhibition (IC50) at human DGKζ was found to be 1.01 µM; at human DGKα [1], 0.21 µM; in the assay with whole blood (pERK), 1.1 µM.
In the case of `CCC(c1ccc(C2CC2)cc1F)N1C[C@H](C)N(c2nc(=O)n(C)c3ccc(C#N)nc23)C[C@H]1CC` (stereo partly drawn) [Example 302, 4-((2S,5R)-4-(1-(4-cyclopropyl-2-fluorophenyl)propyl)-5-ethyl-2-methylpiperazin-1-yl)-1-methyl-2-oxo-1,2-dihydropyrido[3,2-d]pyrimidine-6-carbonitrile], the IC50 was determined as 0.043 µM on human DGKζ, 0.009 µM on human DGKα [1] and 0.034 µM in the assay on whole blood (pERK).
